Patent publication US9636418B2 (priority 2013, dated 2017)
Where “and” joins values, the source holds several entries; their conditions need not be identical. Equal entries are not always repeated. Where two headings read alike, the source gives them in different places.

Molecular target: hNav1.7 (Homo sapiens, UniProt Q15858)
Assay: cell-based
Type: cell-based
[1] = PatchXpress, tonic block, read-out: PX hNav1.7 Tonic IC50
[2] = PatchXpress, * = at high concentrations compound would wash off slowly or not at all, read-out: PX hNav1.7 Tonic IC50

hNav1.7, sequence (Q15858 whole entry): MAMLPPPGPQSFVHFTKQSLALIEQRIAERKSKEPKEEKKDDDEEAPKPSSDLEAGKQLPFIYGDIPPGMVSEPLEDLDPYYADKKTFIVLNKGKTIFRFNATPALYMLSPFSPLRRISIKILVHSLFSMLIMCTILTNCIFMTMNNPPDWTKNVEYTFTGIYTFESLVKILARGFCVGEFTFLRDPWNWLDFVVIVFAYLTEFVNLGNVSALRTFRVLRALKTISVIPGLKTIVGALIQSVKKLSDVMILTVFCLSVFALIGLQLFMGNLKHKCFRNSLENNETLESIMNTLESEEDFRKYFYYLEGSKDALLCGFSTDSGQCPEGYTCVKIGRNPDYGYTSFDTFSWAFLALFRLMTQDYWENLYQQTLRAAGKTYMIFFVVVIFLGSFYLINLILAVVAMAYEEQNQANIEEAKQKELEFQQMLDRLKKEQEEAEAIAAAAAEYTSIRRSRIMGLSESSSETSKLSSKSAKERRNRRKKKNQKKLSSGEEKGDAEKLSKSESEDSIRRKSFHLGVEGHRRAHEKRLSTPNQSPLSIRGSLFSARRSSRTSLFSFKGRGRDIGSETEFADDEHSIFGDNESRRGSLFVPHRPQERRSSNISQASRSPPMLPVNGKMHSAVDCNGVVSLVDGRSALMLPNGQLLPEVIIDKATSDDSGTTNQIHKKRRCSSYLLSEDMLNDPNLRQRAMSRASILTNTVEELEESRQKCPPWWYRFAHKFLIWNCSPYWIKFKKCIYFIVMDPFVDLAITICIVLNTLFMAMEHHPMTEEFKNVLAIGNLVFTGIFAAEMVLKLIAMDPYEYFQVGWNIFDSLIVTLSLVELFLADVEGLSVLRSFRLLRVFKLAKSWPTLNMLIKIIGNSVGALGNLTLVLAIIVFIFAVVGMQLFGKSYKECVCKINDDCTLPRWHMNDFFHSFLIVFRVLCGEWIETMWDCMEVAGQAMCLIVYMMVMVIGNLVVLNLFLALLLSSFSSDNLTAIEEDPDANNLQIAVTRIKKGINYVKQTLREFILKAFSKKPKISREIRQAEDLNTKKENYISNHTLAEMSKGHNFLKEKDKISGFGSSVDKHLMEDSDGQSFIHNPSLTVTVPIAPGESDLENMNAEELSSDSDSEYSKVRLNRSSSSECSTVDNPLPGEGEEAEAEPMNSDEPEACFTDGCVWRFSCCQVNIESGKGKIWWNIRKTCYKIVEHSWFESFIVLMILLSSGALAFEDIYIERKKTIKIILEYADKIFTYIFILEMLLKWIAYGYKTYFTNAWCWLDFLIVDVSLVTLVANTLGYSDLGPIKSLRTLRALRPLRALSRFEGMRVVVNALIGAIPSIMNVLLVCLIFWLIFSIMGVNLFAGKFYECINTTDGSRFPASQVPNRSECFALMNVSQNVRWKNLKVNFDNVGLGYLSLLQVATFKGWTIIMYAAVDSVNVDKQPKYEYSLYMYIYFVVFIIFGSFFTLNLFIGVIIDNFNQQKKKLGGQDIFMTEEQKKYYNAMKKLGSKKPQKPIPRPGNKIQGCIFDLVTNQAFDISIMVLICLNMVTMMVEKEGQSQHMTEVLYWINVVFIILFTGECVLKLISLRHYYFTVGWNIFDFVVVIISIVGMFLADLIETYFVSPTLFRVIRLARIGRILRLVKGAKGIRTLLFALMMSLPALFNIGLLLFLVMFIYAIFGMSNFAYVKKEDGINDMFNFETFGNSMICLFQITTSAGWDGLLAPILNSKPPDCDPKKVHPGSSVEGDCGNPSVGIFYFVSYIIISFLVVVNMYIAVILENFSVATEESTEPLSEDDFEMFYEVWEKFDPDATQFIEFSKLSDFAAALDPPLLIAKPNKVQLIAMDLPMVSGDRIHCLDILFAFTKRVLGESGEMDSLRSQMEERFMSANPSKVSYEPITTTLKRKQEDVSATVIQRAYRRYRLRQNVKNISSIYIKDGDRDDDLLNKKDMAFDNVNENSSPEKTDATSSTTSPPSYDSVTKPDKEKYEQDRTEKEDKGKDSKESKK

`C#CC[C@H](N)C(=O)NCCCC[C@@H]1NC(=O)[C@H](CCCNC(=N)N)NC(=O)[C@H](CCCCN)NC(=O)[C@H](CO)NC(=O)[C@H](CC(=O)O)NC(=O)[C@@H]2CSSC[C@@H]3NC(=O)[C@H](CCC(=O)O)NC(=O)[C@H](CC(C)C)NC(=O)CNC(=O)[C@H](CCC(=O)O)NC(=O)[C@H](CSSC[C@H](NC(=O)[C@H](Cc4ccc(O)cc4)NC(=O)[C@@H](N)CCC)C(=O)N[C@@H](CCC(N)=O)C(=O)N[C@@H](CCCCN)C(=O)N[C@@H](Cc4c[nH]c5ccccc45)C(=O)N[C@@H](CC(C)C)C(=O)N[C@@H](Cc4c[nH]c5ccccc45)C(=O)N[C@@H]([C@@H](C)O)C(=O)N2)NC(=O)[C@H](CSSC[C@@H](C(=O)N[C@@H](CCCNC(=N)N)C(=O)N[C@@H](CCCCN)C(=O)N[C@H](C(=O)N[C@@H](Cc2c[nH]c4ccccc24)C(N)=O)[C@@H](C)CC)NC(=O)[C@H](Cc2c[nH]c4ccccc24)NC(=O)[C@H](CC(C)C)NC(=O)[C@H](CCCCN)NC3=O)NC1=O` [compound 441] gave an IC50 [1] of 10.4 nM.
`CCCC[C@@H]1NC(=O)[C@H](Cc2c[nH]c3ccccc23)NC(=O)[C@H](CCCCN)NC(=O)[C@H](CCC(N)=O)NC(=O)[C@@H](NC(=O)[C@H](Cc2ccc(O)cc2)NC(=O)CN)CSSC[C@@H]2NC(=O)[C@@H]3CSSC[C@@H](C(=O)N[C@@H](CCCNC(=N)N)C(=O)N[C@@H](CCCCN)C(=O)N[C@H](C(=O)N[C@H](C(N)=O)[C@@H](C)CC)[C@@H](C)CC)NC(=O)[C@H](Cc4c[nH]c5ccccc45)NC(=O)[C@H](CC(C)C)NC(=O)[C@H](CCCCN)NC(=O)[C@H](CSSC[C@H](NC(=O)[C@H]([C@@H](C)O)NC(=O)[C@H](Cc4c[nH]c5ccccc45)NC1=O)C(=O)N[C@@H](CC(=O)O)C(=O)N[C@@H](CO)C(=O)N[C@@H](CCCCN)C(=O)N[C@@H](CCCNC(=N)N)C(=O)N[C@@H](C)C(=O)N3)NC(=O)[C@H](CCCNC(=N)N)NC(=O)[C@H](CC(C)C)NC(=O)CNC(=O)[C@H](CCC(=O)O)NC2=O` [compound 359] gave an IC50 [2] of 0.384 nM.
In the case of `C#CC[C@H](N)C(=O)NCCCC[C@@H]1NC(=O)[C@H](CCCNC(=N)N)NC(=O)[C@H](CCCCN)NC(=O)[C@H](CO)NC(=O)[C@H](CC(=O)O)NC(=O)[C@@H]2CSSC[C@@H]3NC(=O)[C@H](CCC(=O)O)NC(=O)[C@H](CC(C)C)NC(=O)CNC(=O)[C@H](CCC(=O)O)NC(=O)[C@H](CSSC[C@H](NC(=O)[C@H](Cc4ccc(O)cc4)NC(=O)[C@@H](N)CCC)C(=O)N[C@@H](CCC(N)=O)C(=O)N[C@@H](CCCCN)C(=O)N[C@@H](Cc4c[nH]c5ccccc45)C(=O)N[C@@H](CCCC)C(=O)N[C@@H](Cc4c[nH]c5ccccc45)C(=O)N[C@@H]([C@@H](C)O)C(=O)N2)NC(=O)[C@H](CSSC[C@@H](C(=O)N[C@@H](CCCNC(=N)N)C(=O)N[C@@H](CCCCN)C(=O)N[C@H](C(=O)N[C@@H](Cc2c[nH]c4ccccc24)C(N)=O)[C@@H](C)CC)NC(=O)[C@H](Cc2c[nH]c4ccccc24)NC(=O)[C@H](CC(C)C)NC(=O)[C@H](CCCCN)NC3=O)NC1=O` [compound 437], the IC50 [1] is reported as 9.59 nM.
For `C=CC[C@H](N)C(=O)N[C@@H](Cc1ccc(O)cc1)C(=O)N[C@H]1CSSC[C@@H]2NC(=O)[C@@H]3CSSC[C@@H](C(=O)N[C@@H](CCCNC(=N)N)C(=O)N[C@@H](CCCCN)C(=O)N[C@H](C(=O)N[C@H](C(N)=O)[C@@H](C)CC)[C@@H](C)CC)NC(=O)[C@H](Cc4c[nH]c5ccccc45)NC(=O)[C@H](CC(C)C)NC(=O)[C@H](CCCCN)NC(=O)[C@H](CSSC[C@H](NC(=O)[C@H]([C@@H](C)O)NC(=O)[C@H](Cc4c[nH]c5ccccc45)NC(=O)[C@H](CCCC)NC(=O)[C@H](Cc4c[nH]c5ccccc45)NC(=O)[C@H](CCCCN)NC(=O)[C@H](CCC(N)=O)NC1=O)C(=O)N[C@@H](CC(=O)O)C(=O)N[C@@H](CO)C(=O)N[C@@H](CCCCN)C(=O)N[C@@H](CCCNC(=N)N)C(=O)N[C@@H](C)C(=O)N3)NC(=O)[C@H](CCCNC(=N)N)NC(=O)[C@H](CC(C)C)NC(=O)CNC(=O)[C@H](CCC(=O)O)NC2=O` [compound 367], the IC50 [2] was 0.488 nM.
Compound `CCCC[C@@H]1NC(=O)[C@H](Cc2c[nH]c3ccccc23)NC(=O)[C@H](CCCCN)NC(=O)[C@H](CCC(N)=O)NC(=O)[C@@H](NC(=O)[C@H](Cc2ccc(O)cc2)NC(=O)[C@@H](N)[C@@H](C)CC)CSSC[C@@H]2NC(=O)[C@@H]3CSSC[C@@H](C(=O)N[C@@H](CCCNC(=N)N)C(=O)N[C@@H](CCCCN)C(=O)N[C@H](C(=O)N[C@H](C(N)=O)[C@@H](C)CC)[C@@H](C)CC)NC(=O)[C@H](Cc4c[nH]c5ccccc45)NC(=O)[C@H](CC(C)C)NC(=O)[C@H](CCCCN)NC(=O)[C@H](CSSC[C@H](NC(=O)[C@H]([C@@H](C)O)NC(=O)[C@H](Cc4c[nH]c5ccccc45)NC1=O)C(=O)N[C@@H](CC(=O)O)C(=O)N[C@@H](CO)C(=O)N[C@@H](CCCCN)C(=O)N[C@@H](CCCNC(=N)N)C(=O)N[C@@H](C)C(=O)N3)NC(=O)[C@H](CCCNC(=N)N)NC(=O)[C@H](CC(C)C)NC(=O)CNC(=O)[C@H](CCC(=O)O)NC2=O` [compound 360] has an IC50 [2] of 0.519 nM.
Compound `CCCC[C@@H]1NC(=O)[C@H](Cc2c[nH]c3ccccc23)NC(=O)[C@H](CCCCN)NC(=O)[C@H](CCC(N)=O)NC(=O)[C@@H](NC(=O)[C@H](Cc2ccc(O)cc2)NC(=O)[C@@H](N)Cc2ccccc2)CSSC[C@@H]2NC(=O)[C@@H]3CSSC[C@@H](C(=O)N[C@@H](CCCNC(=N)N)C(=O)N[C@@H](CCCCN)C(=O)N[C@H](C(=O)N[C@H](C(N)=O)[C@@H](C)CC)[C@@H](C)CC)NC(=O)[C@H](Cc4c[nH]c5ccccc45)NC(=O)[C@H](CC(C)C)NC(=O)[C@H](CCCCN)NC(=O)[C@H](CSSC[C@H](NC(=O)[C@H]([C@@H](C)O)NC(=O)[C@H](Cc4c[nH]c5ccccc45)NC1=O)C(=O)N[C@@H](CC(=O)O)C(=O)N[C@@H](CO)C(=O)N[C@@H](CCCCN)C(=O)N[C@@H](CCCNC(=N)N)C(=O)N[C@@H](C)C(=O)N3)NC(=O)[C@H](CCCNC(=N)N)NC(=O)[C@H](CC(C)C)NC(=O)CNC(=O)[C@H](CCC(=O)O)NC2=O` [compound 358] has an IC50 [2] of 0.493 nM.
For `C#CC[C@H](N)C(=O)NCCCC[C@@H]1NC(=O)[C@H](CCCNC(=N)N)NC(=O)[C@H](CCCCN)NC(=O)[C@H](CO)NC(=O)[C@H](CC(=O)O)NC(=O)[C@@H]2CSSC[C@@H]3NC(=O)[C@H](CCCNC(=N)N)NC(=O)[C@H](CC(C)C)NC(=O)CNC(=O)[C@H](CCC(=O)O)NC(=O)[C@H](CSSC[C@H](NC(=O)[C@H](Cc4ccc(O)cc4)NC(=O)[C@@H](N)CCC)C(=O)N[C@@H](CCC(N)=O)C(=O)N[C@@H](CCCCN)C(=O)N[C@@H](Cc4c[nH]c5ccccc45)C(=O)N[C@@H](CC(C)C)C(=O)N[C@@H](Cc4c[nH]c5ccccc45)C(=O)N[C@@H]([C@@H](C)O)C(=O)N2)NC(=O)[C@H](CSSC[C@@H](C(=O)N[C@@H](CCCNC(=N)N)C(=O)N[C@@H](CCCCN)C(=O)N[C@@H](CCC(=O)O)C(=O)N[C@H](C(N)=O)[C@@H](C)CC)NC(=O)[C@H](Cc2c[nH]c4ccccc24)NC(=O)[C@H](CC(C)C)NC(=O)[C@H](CCCCN)NC3=O)NC1=O` [compound 439], the IC50 [1] was 1.04 nM and 1.37 nM and 0.384 nM and 0.612 nM.
`CCCC[C@@H]1NC(=O)[C@H](Cc2c[nH]c3ccccc23)NC(=O)[C@H](CCCCN)NC(=O)[C@H](CCC(N)=O)NC(=O)[C@@H](NC(=O)[C@H](Cc2ccc(O)cc2)NC(=O)[C@@H]2CCCN2)CSSC[C@@H]2NC(=O)[C@@H]3CSSC[C@@H](C(=O)N[C@@H](CCCNC(=N)N)C(=O)N[C@@H](CCCCN)C(=O)N[C@H](C(=O)N[C@H](C(N)=O)[C@@H](C)CC)[C@@H](C)CC)NC(=O)[C@H](Cc4c[nH]c5ccccc45)NC(=O)[C@H](CC(C)C)NC(=O)[C@H](CCCCN)NC(=O)[C@H](CSSC[C@H](NC(=O)[C@H]([C@@H](C)O)NC(=O)[C@H](Cc4c[nH]c5ccccc45)NC1=O)C(=O)N[C@@H](CC(=O)O)C(=O)N[C@@H](CO)C(=O)N[C@@H](CCCCN)C(=O)N[C@@H](CCCNC(=N)N)C(=O)N[C@@H](C)C(=O)N3)NC(=O)[C@H](CCCNC(=N)N)NC(=O)[C@H](CC(C)C)NC(=O)CNC(=O)[C@H](CCC(=O)O)NC2=O` [compound 362] showed an IC50 [2] of 0.372 nM.
`C#CC[C@H](N)C(=O)NCCCC[C@@H]1NC(=O)[C@H](CCCNC(=N)N)NC(=O)[C@H](CCCCN)NC(=O)[C@H](CO)NC(=O)[C@H](CC(=O)O)NC(=O)[C@@H]2CSSC[C@@H]3NC(=O)[C@H](CCC(=O)O)NC(=O)[C@H](CC(C)C)NC(=O)CNC(=O)[C@H](CCC(=O)O)NC(=O)[C@H](CSSC[C@H](NC(=O)[C@H](Cc4ccc(O)cc4)NC(=O)[C@@H](N)CCC)C(=O)N[C@@H](CCC(N)=O)C(=O)N[C@@H](CCCCN)C(=O)N[C@@H](Cc4c[nH]c5ccccc45)C(=O)N[C@@H](CC(C)C)C(=O)N[C@@H](Cc4c[nH]c5ccccc45)C(=O)N[C@@H]([C@@H](C)O)C(=O)N2)NC(=O)[C@H](CSSC[C@@H](C(=O)N[C@@H](CCCNC(=N)N)C(=O)N[C@@H](CCCCN)C(=O)N[C@@H](Cc2ccc(O)cc2)C(=O)N[C@H](C(N)=O)[C@@H](C)CC)NC(=O)[C@H](Cc2c[nH]c4ccccc24)NC(=O)[C@H](CC(C)C)NC(=O)[C@H](CCCCN)NC3=O)NC1=O` [compound 440] gave an IC50 [1] of 1.95 nM.
For “[Phe6,Atz(500 Da EtO-PEG*-{[Phe6,Atz13*]GpTx-1(1-34)})13]GpTx-1(1-34) [Homodimeric Conjugate No. 4]”, the Wash out was “Yes” and the IC50 (read-out: Nav1.7 PX IC50) was 19 nM.
`CCCC[C@@H]1NC(=O)[C@H](Cc2c[nH]c3ccccc23)NC(=O)[C@H](CCCCN)NC(=O)[C@H](CCC(N)=O)NC(=O)[C@@H](NC(=O)[C@H](Cc2ccc(O)cc2)NC(=O)[C@@H](N)Cc2ccc(O)cc2)CSSC[C@@H]2NC(=O)[C@@H]3CSSC[C@@H](C(=O)N[C@@H](CCCNC(=N)N)C(=O)N[C@@H](CCCCN)C(=O)N[C@H](C(=O)N[C@H](C(N)=O)[C@@H](C)CC)[C@@H](C)CC)NC(=O)[C@H](Cc4c[nH]c5ccccc45)NC(=O)[C@H](CC(C)C)NC(=O)[C@H](CCCCN)NC(=O)[C@H](CSSC[C@H](NC(=O)[C@H]([C@@H](C)O)NC(=O)[C@H](Cc4c[nH]c5ccccc45)NC1=O)C(=O)N[C@@H](CC(=O)O)C(=O)N[C@@H](CO)C(=O)N[C@@H](CCCCN)C(=O)N[C@@H](CCCNC(=N)N)C(=O)N[C@@H](C)C(=O)N3)NC(=O)[C@H](CCCNC(=N)N)NC(=O)[C@H](CC(C)C)NC(=O)CNC(=O)[C@H](CCC(=O)O)NC2=O` [compound 365] was tested, and the IC50 [2] was 0.372 nM.
